Experimental data as given in US11076594B2, “Pyrazolone compound or salt thereof, preparation method therefor, herbicide composition and use thereof” (QINGDAO KINGAGROOT CHEMICAL COMPOUNDS CO., LTD., priority 2015, dated 2021).
Values belong to the compound of their own block, whether it stands above or below them.

Experiments:
Format in all cases: in vivo
foxtail = assay: weed control effect in post-emergence stage (Table 1); set-up: key: Level 10: completely dead; Level 9: above 95% growth control rate; Level 8: above 90% growth control rate; Level 7: above 80% growth control rate; Level 6: above 70% growth control rate; Level 5: above 60% growth control rate; Level 4: above 50% growth control rate; Level 3: above 20% growth control rate; Level 2: 5%-20% growth control rate; Level 1: below 5% growth control rate; conditions: post-emergence spray at 4-5 leaf stage, 250 g/ha active ingredient with 450 kg/ha water, rated after 3 weeks in greenhouse
In short: (§1)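 Fresh-weight-based growth control rate was assessed 3 weeks after spraying. Test compound, dissolved in acetone, with tween 80 added and diluted in water, was sprayed onto greenhouse-grown, pot-cultured weeds and crop plants at 4-5 leaves, 2-3 weeks post-sowing.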

Indian mallow = assay: as above; set-up: key: Level 10: completely dead; Level 9: above 95% growth control rate; Level 8: above 90% growth control rate; Level 7: above 80% growth control rate; Level 6: above 70% growth control rate; Level 5: above 60% growth control rate; Level 4: above 50% growth control rate; Level 3: above 20% growth control rate; Level 2: 5%-20% growth control rate; Level 1: below 5% growth control rate; conditions: post-emergence spray at 4-5 leaf stage, 250 g/ha active ingredient with 450 kg/ha water, rated after 3 weeks in greenhouse
In short: as §1

rorippa indica = assay: as above; set-up: key: Level 10: completely dead; Level 9: above 95% growth control rate; Level 8: above 90% growth control rate; Level 7: above 80% growth control rate; Level 6: above 70% growth control rate; Level 5: above 60% growth control rate; Level 4: above 50% growth control rate; Level 3: above 20% growth control rate; Level 2: 5%-20% growth control rate; Level 1: below 5% growth control rate; conditions: post-emergence spray at 4-5 leaf stage, 250 g/ha active ingredient with 450 kg/ha water, rated after 3 weeks in greenhouse
In short: as §1

crab grass = assay: as above; set-up: key: Level 10: completely dead; Level 9: above 95% growth control rate; Level 8: above 90% growth control rate; Level 7: above 80% growth control rate; Level 6: above 70% growth control rate; Level 5: above 60% growth control rate; Level 4: above 50% growth control rate; Level 3: above 20% growth control rate; Level 2: 5%-20% growth control rate; Level 1: below 5% growth control rate; conditions: post-emergence spray at 4-5 leaf stage, 250 g/ha active ingredient with 450 kg/ha water, rated after 3 weeks in greenhouse
In short: as §1

bidens bipinnata = assay: as above; set-up: key: Level 10: completely dead; Level 9: above 95% growth control rate; Level 8: above 90% growth control rate; Level 7: above 80% growth control rate; Level 6: above 70% growth control rate; Level 5: above 60% growth control rate; Level 4: above 50% growth control rate; Level 3: above 20% growth control rate; Level 2: 5%-20% growth control rate; Level 1: below 5% growth control rate; conditions: post-emergence spray at 4-5 leaf stage, 250 g/ha active ingredient with 450 kg/ha water, rated after 3 weeks in greenhouse
In short: as §1

echinochloa [1] = assay: as above; set-up: key: Level 10: completely dead; Level 9: above 95% growth control rate; Level 8: above 90% growth control rate; Level 7: above 80% growth control rate; Level 6: above 70% growth control rate; Level 5: above 60% growth control rate; Level 4: above 50% growth control rate; Level 3: above 20% growth control rate; Level 2: 5%-20% growth control rate; Level 1: below 5% growth control rate; conditions: post-emergence spray at 4-5 leaf stage, 250 g/ha active ingredient with 450 kg/ha water, rated after 3 weeks in greenhouse
In short: as §1

bidens tripartite = assay: weed control effect evaluation in rice field; set-up: key: Level 10: completely dead; Level 9: above 95% growth control rate; Level 8: above 90% growth control rate; Level 7: above 80% growth control rate; Level 6: above 70% growth control rate; Level 5: above 60% growth control rate; Level 4: above 50% growth control rate; Level 3: above 20% growth control rate; Level 2: 5%-20% growth control rate; Level 1: below 5% growth control rate; conditions: 125 g/ha ai; rice field pot; 14 days after treatment; resistant to pyrazosulfuron-ethyl
Source text: (§2) The activity level standard of harmful plant destruction (i.e. growth control rate) is as follows: Rice field soil was loaded into a 1/1,000,000 ha pot. The seeds of echinochloa, scirpus juncoides, bidens tripartite and sagittaria trifolia were sowed and gently covered with soil, then left to stand still in greenhouse in the state of 0.5-1 cm of water storage. The tuber of sagittaria trifolia was planted in the next day or 2 days later. It was kept at 3-4 cm of water storage thereafter. The weeds were treated by dripping the WP or SC water diluents prepared according to the common preparation method of the compounds of the present invention with pipette homogeneously to achieve specified effective amount when echinochloa, scirpus juncoides and bidens tripartite reached 0.5 leaf stage and sagittaria trifolia reached the time point of primary leaf stage. The fertility condition of echinochloa, scirpus juncoides, bidens tripartite and sagittaria trifolia 14 days after the treatment of the compound of the invention and the fertility condition of rice 21 days after the treatment of the compound of the invention respectively with the naked eye.

sagittaria trifolia = assay: weed control effect evaluation in rice field; set-up: key: Level 10: completely dead; Level 9: above 95% growth control rate; Level 8: above 90% growth control rate; Level 7: above 80% growth control rate; Level 6: above 70% growth control rate; Level 5: above 60% growth control rate; Level 4: above 50% growth control rate; Level 3: above 20% growth control rate; Level 2: 5%-20% growth control rate; Level 1: below 5% growth control rate; conditions: 125 g/ha ai; rice field pot; 14 days after treatment; resistant to pyrazosulfuron-ethyl
Source text: as §2

echinochloa [2] = assay: weed control effect evaluation in rice field; set-up: key: Level 10: completely dead; Level 9: above 95% growth control rate; Level 8: above 90% growth control rate; Level 7: above 80% growth control rate; Level 6: above 70% growth control rate; Level 5: above 60% growth control rate; Level 4: above 50% growth control rate; Level 3: above 20% growth control rate; Level 2: 5%-20% growth control rate; Level 1: below 5% growth control rate; conditions: 125 g/ha ai; rice field pot; 14 days after treatment; resistant to pyrazosulfuron-ethyl
Source text: as §2

scirpus juncoides = assay: weed control effect evaluation in rice field; set-up: key: Level 10: completely dead; Level 9: above 95% growth control rate; Level 8: above 90% growth control rate; Level 7: above 80% growth control rate; Level 6: above 70% growth control rate; Level 5: above 60% growth control rate; Level 4: above 50% growth control rate; Level 3: above 20% growth control rate; Level 2: 5%-20% growth control rate; Level 1: below 5% growth control rate; conditions: 125 g/ha ai; rice field pot; 14 days after treatment; resistant to pyrazosulfuron-ethyl
Source text: as §2

wheat = assay: post-emergence stage experiment, crop (Table 1); conditions: post-emergence spray at 4-5 leaf stage, 250 g/ha active ingredient with 450 kg/ha water, rated after 3 weeks in greenhouse
In short: as §1

rice (japonica rice) = assay: transplanted rice safety evaluation; conditions: 125 g/ha ai; treated 5 days after transplantation; 21 days after treatment
Method: The activity level standard of harmful plant destruction (i.e. growth control rate) is as follows: In addition, the rice field soil that loaded into the 1/1,000,000 ha pot was leveled to keep water storage at 3-4 cm depth. The 3 leaf stage rice (japonica rice) was transplanted at 3 cm of transplanting depth the next day. The compound of the present invention was treated by the same way after 5 days of transplantation. The fertility condition of echinochloa, scirpus juncoides, bidens tripartite and sagittaria trifolia 14 days after the treatment of the compound of the invention and the fertility condition of rice 21 days after the treatment of the compound of the invention respectively with the naked eye.

rice = assay: post-emergence stage experiment, crop (Table 1); conditions: post-emergence spray at 4-5 leaf stage, 250 g/ha active ingredient with 450 kg/ha water, rated after 3 weeks in greenhouse
In short: as §1

corn = assay: post-emergence stage experiment, crop (Table 1); conditions: post-emergence spray at 4-5 leaf stage, 250 g/ha active ingredient with 450 kg/ha water, rated after 3 weeks in greenhouse
In short: as §1

effect on crop, Wheat (level) (wheat): 0
Compound: Cc1nn(C)c(O)c1C(=O)c1ccc(C(F)(F)F)c(N2CCCCCC2=O)c1Cl [Compound 054]
weed control effect, Green foxtail (level) (foxtail): 5 (Level 5: above 60% growth control rate)
weed control effect, Indian mallow (level) (Indian mallow): 9 (Level 9: above 95% growth control rate)
weed control effect, Rorippa indica (level) (rorippa indica): 9 (Level 9: above 95% growth control rate)
weed control effect, Crab grass (level) (crab grass): 1 (Level 1: below 5% growth control rate)
weed control effect, Bidens bipinnata (level) (bidens bipinnata): 9 (Level 9: above 95% growth control rate)
weed control effect, Echinochloa (level) (echinochloa [1]): 6 (Level 6: above 70% growth control rate)
Bidens tripartite weed control effect (activity level) (bidens tripartite): 9 (Level 9: above 95% growth control rate)
Sagittaria trifolia weed control effect (activity level) (sagittaria trifolia): 9 (Level 9: above 95% growth control rate)
Echinochloa weed control effect (activity level) (echinochloa [2]): 8 (Level 8: above 90% growth control rate)
Scirpus juncoides weed control effect (activity level) (scirpus juncoides): 9 (Level 9: above 95% growth control rate)
Rice (activity level, transplanted rice safety) (rice (japonica rice)): 2 (Level 2: 5%-20% growth control rate)
effect on crop, Rice (level) (rice): 4 (Level 4: above 50% growth control rate)

effect on crop, Wheat (level) (wheat): 0
Compound: Cc1nn(C)c(O)c1C(=O)c1ccc(C(F)(F)F)c(N)c1Cl [Compound 001]
weed control effect, Green foxtail (level) (foxtail): 6 (Level 6: above 70% growth control rate)
weed control effect, Indian mallow (level) (Indian mallow): 9 (Level 9: above 95% growth control rate)
weed control effect, Rorippa indica (level) (rorippa indica): 9 (Level 9: above 95% growth control rate)
weed control effect, Crab grass (level) (crab grass): 1 (Level 1: below 5% growth control rate)
weed control effect, Bidens bipinnata (level) (bidens bipinnata): 8 (Level 8: above 90% growth control rate)
weed control effect, Echinochloa (level) (echinochloa [1]): 6 (Level 6: above 70% growth control rate)
Bidens tripartite weed control effect (activity level) (bidens tripartite): 8 (Level 8: above 90% growth control rate)
Sagittaria trifolia weed control effect (activity level) (sagittaria trifolia): 9 (Level 9: above 95% growth control rate)
Echinochloa weed control effect (activity level) (echinochloa [2]): 10
Scirpus juncoides weed control effect (activity level) (scirpus juncoides): 10
Rice (activity level, transplanted rice safety) (rice (japonica rice)): 0
effect on crop, Rice (level) (rice): 4 (Level 4: above 50% growth control rate)

The next lines start with the compound.

Compound: CCOc1c(C(=O)Oc2c(C(=O)c3ccc(C(F)(F)F)c(-n4cccn4)c3Cl)cnn2C)cnn1C [Compound 065]
weed control effect, Green foxtail (level) (foxtail): 10
weed control effect, Indian mallow (level) (Indian mallow): 9 (Level 9: above 95% growth control rate)
weed control effect, Rorippa indica (level) (rorippa indica): 9 (Level 9: above 95% growth control rate)
weed control effect, Crab grass (level) (crab grass): 8 (Level 8: above 90% growth control rate)
weed control effect, Bidens bipinnata (level) (bidens bipinnata): 7 (Level 7: above 80% growth control rate)
weed control effect, Echinochloa (level) (echinochloa [1]): 7 (Level 7: above 80% growth control rate)
Bidens tripartite weed control effect (activity level) (bidens tripartite): 8 (Level 8: above 90% growth control rate)
Sagittaria trifolia weed control effect (activity level) (sagittaria trifolia): 9 (Level 9: above 95% growth control rate)
Echinochloa weed control effect (activity level) (echinochloa [2]): 9 (Level 9: above 95% growth control rate)
Scirpus juncoides weed control effect (activity level) (scirpus juncoides): 9 (Level 9: above 95% growth control rate)
effect on crop, Corn (level) (corn): 9 (Level 9: above 95% growth control rate)
effect on crop, Wheat (level) (wheat): 3 (Level 3: above 20% growth control rate)
Rice (activity level, transplanted rice safety) (rice (japonica rice)): 3 (Level 3: above 20% growth control rate)
effect on crop, Rice (level) (rice): 3 (Level 3: above 20% growth control rate)

Compound: Cc1nn(C)c(O)c1C(=O)c1ccc(C(F)(F)F)c(-n2cccn2)c1Cl [Compound 068]
weed control effect, Green foxtail (level) (foxtail): 10
weed control effect, Indian mallow (level) (Indian mallow): 10
weed control effect, Rorippa indica (level) (rorippa indica): 9 (Level 9: above 95% growth control rate)
weed control effect, Crab grass (level) (crab grass): 5 (Level 5: above 60% growth control rate)
weed control effect, Bidens bipinnata (level) (bidens bipinnata): 10
weed control effect, Echinochloa (level) (echinochloa [1]): 10
Bidens tripartite weed control effect (activity level) (bidens tripartite): 10
Sagittaria trifolia weed control effect (activity level) (sagittaria trifolia): 10
Echinochloa weed control effect (activity level) (echinochloa [2]): 10
Scirpus juncoides weed control effect (activity level) (scirpus juncoides): 9 (Level 9: above 95% growth control rate)
effect on crop, Wheat (level) (wheat): 3 (Level 3: above 20% growth control rate)
Rice (activity level, transplanted rice safety) (rice (japonica rice)): 1 (Level 1: below 5% growth control rate)
effect on crop, Rice (level) (rice): 5 (Level 5: above 60% growth control rate)

Compound: Cc1ccn(-c2c(C(F)(F)F)ccc(C(=O)c3c(C)nn(C)c3O)c2Cl)n1 [Compound 077]
weed control effect, Green foxtail (level) (foxtail): 7 (Level 7: above 80% growth control rate)
weed control effect, Indian mallow (level) (Indian mallow): 10
weed control effect, Rorippa indica (level) (rorippa indica): 10
weed control effect, Crab grass (level) (crab grass): 4 (Level 4: above 50% growth control rate)
weed control effect, Bidens bipinnata (level) (bidens bipinnata): 9 (Level 9: above 95% growth control rate)
weed control effect, Echinochloa (level) (echinochloa [1]): 10
Bidens tripartite weed control effect (activity level) (bidens tripartite): 9 (Level 9: above 95% growth control rate)
Sagittaria trifolia weed control effect (activity level) (sagittaria trifolia): 10
Echinochloa weed control effect (activity level) (echinochloa [2]): 10
Scirpus juncoides weed control effect (activity level) (scirpus juncoides): 10
effect on crop, Wheat (level) (wheat): 0
Rice (activity level, transplanted rice safety) (rice (japonica rice)): 1 (Level 1: below 5% growth control rate)
effect on crop, Rice (level) (rice): 6 (Level 6: above 70% growth control rate)
